Assay results published in publication PMC10022191, “Safety, tolerability, pharmacokinetics, and antiviral activity of the novel core protein allosteric modulator ZM-H1505R (Canocapavir) in chronic hepatitis B patients: a randomized multiple-dose escalation trial” (BMC Medicine, 2023).
Entries after “also recorded” stand apart in the source; their conditions may differ.

Test system: HBV
Experiment: phase 1b trial: antiviral activity (serum HBV markers) in CHB patients
Type: in vivo, Hepatitis B virus
[1] = 100 mg q.d., single patient with ALT flare

Protocol: The changes in the serum levels of HBV DNA, HBV pgRNA, HBcrAg, HBsAg, HBsAb, HBeAg, HBeAb, and HBcAb at different time points were examined. Blood samples were collected on the initial screening day (baseline) and days 1, 8, 15, 22, 29, 43 ± 1, and 57 ± 2 postdosing.
The HBV DNA level was measured using a COBAS TaqMan kit (Roche Diagnostics, Pleasanton, CA, USA), according to the manufacturer’s instructions. The lowest detectable level using this kit was 20 IU/mL. The serum levels of HBeAg and HBsAg were quantitatively assessed by a chemiluminescence method using Abbott Architect assays (Abbott Diagnostics; Abbott Park, IL, USA). The lowest detectable level of the kit for HBeAg and HBsAg were 1 and 0.05 IU/mL, respectively.

## O=C1CO[C@H](c2cn(-c3ccc(Br)cc3)nc2-c2ccc(F)cc2)N1CCc1ccc2[nH]c(=O)[nH]c2c1 [Canocapavir]
50 mg q.d.
  patients with HBV DNA reduced below the lower limit of quantification: 0 number of patients (percentage
  patients with HBV pgRNA reduced below the lower limit of quantification (~ 2 log10 copies/mL): 1 (12.5%) number of patients (percentage
50 mg q.d., 28 days
  maximum mean HBcrAg decrease: -0.30 log10 kU/mL
  mean maximum HBV DNA decline from baseline: -1.54 log10 IU/mL
  mean maximum HBV pgRNA decline from baseline: -1.53 log10 copies/mL
50 mg q.d., HBeAg (+) patient
  HBV DNA response, subject E2003 with pre-existing HBc P25S substitution: no decrease
  HBV pgRNA response, subject E2003 with pre-existing HBc P25S substitution: only slightly decreased; also recorded: only a slight decrease
100 mg q.d.
  patients with HBV DNA reduced below the lower limit of quantification: 1 (12.5%) number of patients (percentage
  patients with HBV pgRNA reduced below the lower limit of quantification (~ 2 log10 copies/mL): 1 (12.5%) number of patients (percentage
100 mg q.d., 28 days
  maximum mean HBcrAg decrease: -0.61 log10 kU/mL
  mean maximum HBV DNA decline from baseline: -2.50 log10 IU/mL
  mean maximum HBV pgRNA decline from baseline: -2.35 log10 copies/mL
[1]
  maximum decrease of HBV DNA, patient E3010: -3.23 log10 IU/mL
  maximum decrease of HBV pgRNA, patient E3010: -3.71 log10 copies/mL
  maximum decrease of HBcrAg, patient E3010: -1.96 log10 kU/mL
  maximum decrease of HBsAg, patient E3010: -0.22 log10 IU/mL
200 mg q.d.
  patients with HBV DNA reduced below the lower limit of quantification: 1 (12.5%) number of patients (percentage
  patients with HBV pgRNA reduced below the lower limit of quantification (~ 2 log10 copies/mL): 4 (50.0%) number of patients (percentage
200 mg q.d., 28 days
  maximum mean HBcrAg decrease: -0.51 log10 kU/mL
  mean maximum HBV DNA decline from baseline: -2.75 log10 IU/mL
  mean maximum HBV pgRNA decline from baseline: -2.34 log10 copies/mL
50–200 mg q.d., 28 days
  change of HBeAg level: Neither the HBsAg nor HBeAg levels decreased
  change of HBsAg level: Neither the HBsAg nor HBeAg levels decreased
  changes in levels of HBsAb, HBeAb, HBcAb: no clinically significant changes
